The values below come from patent publication US20160304547A1, “MACROLIDE COMPOUND” (PULIKE BIOLOGICAL ENGINEERING, INC, priority 2013, published 2016).

The nature of data set [1]: Acute toxicity test of compound Syzx-24, single gastric perfusion. The conditions noted are these: Balb/c mice, 2000 mg/kg once by gastric perfusion, 6 h after administration.
For data set [2] the following is noted: orally intoxicated mice; cited from earlier work.
The subject of data set [3] is Streptococcus pneumoniae CMCC 31203. Description: In vivo antibacterial test, survival of infected BALB/c mice. The conditions noted are these: BALB/c mice infected i.p. with Streptococcus pneumoniae; for responders at 5 mg/kg: CMCC31203, sc, 168 h, 5 mg per kg s.c. via neck for 3 consecutive days, deaths recorded until the seventh day, read-out: Animal survival rate.

The subject of data set [4] is Staphylococcus aureus CVCC26003. Description: MIC by mini broth dilution technique (in vitro susceptibility). Format: cell-based. The conditions noted are these: Staphylococcus aureus CVCC26003; broth dilution; read-out: MIC values Staphylococcus aureus CVCC26003. Here is the method:
in vitro tests of susceptibility of the compounds according to the present disclosure against bacterial strains commonly used in laboratories. In accordance with the Performance Standards for Antimicrobial Disk Susceptibility Tests: Approved Standard published by the US National Committee for Clinical Laboratory Standards, the antibactetial activities of compounds prepared according to examples 5 to 187 were tested. The MICs (minimum inhibitory concentration) of the medicaments prepared according to the examples on the following bacterial strains were measured through mini broth dilution technique. Staphylococcus aureus CVCC26003, Streptococcus equines CVCC556. Actinobacillus pleuropneumoniae CVCC262, Haemophilus parasuis, and Pasteurella multocida CVCC399, which were purchased from the Control Institute of Veterinary Bioproducts and Pharmaceuticals, China. Liquid culture medium: CAMHB. […] Solid culture medium: NINA prepared according to the specification of the final product. The strains were taken out of a regrigerator at −20° C. to be revived, and were spreaded by streaking on the solid culture medium with an inoculating loop. The inoculated culture medium was cultured at 35° C. in a constant temperature incubator for 20 h. Monoclonal antibodies were selected from a well-grown culture plate and streaked on the solid culture medium. The inoculated culture medium was cultured at 35° C. in the constant temperature incubator for 20 h. […] A 96-well plate was used, and 100 μl of DMSO was added into each of wells 2 to 11, and 200 μl of ready-prepared medicament solution was added into the 1st well, 100 μl of the medicament solution was extracted from the 1st well and added into the 2nd well. Double dilution was performed until the 11th well, thereby forming 11 gradients. In this case, compound of parent plate was prepared. 3 μl of double diluted medicament solution was extracted with a 12-channel pipettor and added into wells 1-11 of a new disposable 96-well culture plate. The 12th well thereof is a controll well. For each medicament, there are two adjacent rows which are parallel. The transferred compound plate was reserved for later use. […] The dilution ratio was recorded, and the bacterial liquid for the tests was diluted according to the recorded dilution ratio. Subsequently, the bacterial suspension and the liquid culture medium were diluted in the proportion of 1:200. The diluted solution was reserved for later use.
For orientation: In broth dilution the organism is exposed to a series of concentrations in liquid medium.

Data set [5] concerns Pasteurella multocida CVCC399. The data set is described as above. Format: cell-based. The conditions noted are these: Pasteurella multocida CVCC399; broth dilution; read-out: MIC values Pasteurella multocida CVCC399.
For data set [6], the system named is Actinobacillus pleuropneumoniae CVCC262. The data set is described as above. The conditions noted are these: Actinobacillus pleuropneumoniae CVCC262; broth dilution; read-out: MIC values Actinobacillus pleuropneumoniae CVCC262. It counts as cell-based.
The test system of the next data set is Haemophilus parasuis. Described as above. The conditions noted are these: Glaesserella parasuis; Haemophilus parasuis; broth dilution; read-out: MIC values Haemophilus parasuis. Format: cell-based.
Data set [7] deals with Streptococcus equines CVCC556. The description is as above. Format: cell-based. The conditions noted are these: Streptococcus equines CVCC556; broth dilution; read-out: MIC values Streptococcus equines CVCC556.

≈ marks a conversion by molar mass, not a printed value. Bounds are passed on as bounds.

Turning to `CCCNC[C@]1(O)[C@H](C)O[C@@H](O[C@H]2[C@H](C)[C@@H](O[C@@H]3O[C@H](C)C[C@H](N(C)C)[C@H]3O)[C@](C)(O)C[C@@H](C)CN[C@H](C)[C@@H](O)[C@](C)(O)[C@@H](CC)OC(=O)[C@@H]2C)C[C@@]1(C)OC` [Tulathromycin, reference compound], the Death rate in data set [1] is listed as 75%. In addition, in data set [2], the minimum lethal dose result was “higher than 2000 mg/kg.d-1”. For the same compound, the Animal survival rate in data set [3] (Tulathromycin control group, 10 mg per kg of body weight after infection, until the seventh day) was 70% (7/10).
In the case of `CC[C@H]1OC(=O)[C@H](C)[C@@H](O[C@H]2C[C@@](C)(OC)[C@](O)(CN(C)C)[C@H](C)O2)[C@H](C)[C@@H](O[C@@H]2O[C@H](C)C[C@H](N(C)C)[C@H]2O)[C@](C)(O)C[C@@H](C)NC[C@H](C)[C@@H](O)[C@]1(C)O` [syzx-24], in data set [1], the Death rate is given as 0% and the “Number of dead animals/total number of animals” value is 0/4.
The MIC is the smallest concentration in the dilution series that meets the test's criterion for growth inhibition. With `CC[C@@H]1OC(=O)[C@H](C)[C@H](OC2C[C@@](C)(OC)[C@](O)(CNCC3CCCCC3)[C@H](C)O2)[C@@H](C)[C@@H](O[C@@H]2O[C@H](C)C[C@H](N(C)C)[C@H]2O)[C@](C)(O)C[C@@H](C)NC[C@@H](C)[C@H](O)[C@]1(C)O` (some centres unmarked) [syzx-67], the minimum inhibitory concentration (MIC) in data set [4] is at most 0.25 µg/mL; in data set [5], at most 0.25 µg/mL; in data set [6], 0.5 µg/mL (≈ 0.581 µM); in the data set with Haemophilus parasuis it was at most 0.25 µg/mL; in data set [7], at most 0.25 µg/mL. Besides, the responders at 5 mg/kg in data set [3] worked out at 70%.
As to `CCCN1C[C@@H](C)[C@@H](O)[C@](C)(O)[C@H](CC)OC(=O)[C@H](C)[C@H](OC2C[C@@](C)(OC)[C@](O)(CN(C)CC)[C@H](C)O2)[C@H](C)[C@@H](O[C@@H]2O[C@H](C)C[C@H](N(C)C)[C@H]2O)[C@](C)(O)C[C@H]1C` (some centres unmarked) [syzx-213], the MIC (in data set [4]; in data set [5]; in data set [6]; in the data set on Haemophilus parasuis; in data set [7]) was 0.25 µg/mL (≈ 0.295 µM) in each case. Also, the responders at 5 mg/kg in data set [3] came out at 90%.
